Laboratory results from US10537607B2, “Treatment of autoimmune and/or inflammatory disease using novel caveolin modulators” (E&B TECHNOLOGIES LLC, priority 2013, dated 2020).
“Also recorded” adds a separate entry of the source.

What was measured:
[1] = system: VEGF-induced NO release (eNOS activity) in BAEC; assay: VEGF-induced NO release in cultured BAEC; format: cell-based, bovine; conditions: for effect on VEGF-induced NO release (in words) / inhibition of VEGF-induced NO release: 6 h pretreatment; for effect on basal (unstimulated) NO release: six-hour pretreatment, NO-specific chemiluminescence
Method: VEGF-induced NO release experiments were performed as previously described.
[…] Media was removed and fresh serum-free DMEM was added, with or without VEGF (10^−9 M) for 30 minutes. Media was collected, cells were trypsinized and counted, and nitrites levels in the supernatant were determined by using a Sievers NO chemiluminescence analyzer.

[2] = system: mustard oil-induced vascular permeability; format: in vivo, mouse; conditions: mice, one-hour pretreatment, AP-Cav 1 mg/kg or same molar dose, vs carrier peptide alone, 30 min
Method: Plasma leakage in mouse skin was studied using the Miles assay as previously described. Briefly, male Swiss mice (30-35 g) were anesthetized and injected with Evans blue (30 mg/kg in PBS; Sigma). […] (5% in mineral oil), an analog of mustard oil (Pierce, Rockford, Ill.) was applied on the right ear with a cotton tip. The left ear was used as a control and was treated with mineral oil alone. After 30 minutes, the anesthetized animals were sacrificed, perfused, ears were removed, dried and weighed. Evans blue was extracted from the ears with formamide and quantified spectrophotometrically at 595 nm.

[3] = system: dextran sulfate sodium colitis; assay: Dextran sulfate sodium model of inflammatory bowel disease; format: in vivo, mouse; conditions: C57B1/6 mice, DSS 2% in drinking water, 2.5 mg/kg i.p. daily from day 1
Method: C57B1/6 mice are fed dextran sulfate sodium 2% in the drinking water for 9 days. Body weights are measured daily. At the end of 9 days, mice are sacrificed and the first distal centimeter of the colon subject to histopathological analysis. Sections are scored according to the scoring system described in Jirkof et al., Burrowing is a sensitive behavioral assay for monitoring general wellbeing during dextran sulfate sodium colitis in laboratory mice. Laboratory animals. 2013, 47(4):274-83. doi: 10.1177/0023677213493409. PubMed PMID:23828853.

[4] = system: multiple sclerosis; assay: Treatment of patients diagnosed with multiple sclerosis; format: in vivo, human; conditions: 80 mg per day by subcutaneous injection
Method: Patients diagnosed with MS, including relapsing remitting and primary progressive types, are treated with Endo-5 CavAB (SEQ ID NO.1/SEQ ID NO. 6) (or other caveolin analog) at 80 mg per day by subcutaneous injection. […] The changes in the patient receiving the treatment are measured using the Multiple Sclerosis Functional Composite. See, e.g., the website of the National MS Society: Clinical Study Measures.

[5] = system: HUVEC; assay: CPP imaging of live HUVEC (pulse/chase epifluorescence microscopy); format: cell-based, human; conditions: for intracellular staining after pulse: carboxyfluorescein-Endo5 and rhodamine-AP, 10^−6M, 1 h at 37° C.; for intracellular staining after chase: two-hour chase in absence of CPP
Method: Freshly isolated HUVEC were grown in M199 media supplemented with glutamine, 10% FBS and endothelial cell growth supplement on Petri dishes with glass bottom. Since CPPs bind non-specifically to glass, the background fluorescence was reduced by pretreating glass-bottom Petri dishes with a blocking solution containing unlabelled AP and Endo5 for 30 minutes (5×10^−5 M) in colorless M199 media with 1% FBS.
After cell seeding, media was removed and carboxyfluorescin-labeled Endo5 and Rhodamine-labeled AP were added to cells (10^−5M) and cells were incubated at 37° C. and 5% CO2 for 1 hour (pulse). Media was removed, cells were rinsed once with warm culture media and peptide uptake was rapidly visualized on a Zess Axiovert inverted fluorescence microscope by performing a Z-stack of captured images followed by volume deconvolution (Openlab software). The new media was left on cells for an additional 2 hours (total 3 hours) to chase CPP localization, and cells were visualized again (chase).
In the present study, epifluorescence microscopy experiments were performed in live HUVEC to compare the uptake mechanism of Endo5 to AP. After blocking glass bottom Petri dishes with unlabeled AP and Endo5 to minimize non-specific binding of labeled peptides, freshly isolated HUVEC were grown to 50% confluent and labeled with a “pulse” of carboxyfluorescein-Endo5 and rhodamine-AP (10^−6M) for 1 h, rinsed, followed by a two-hour “chase” for a total of 3 hours.

[6] = system: BAEC; assay: Quantification of internalization of fluorophore-labelled peptides; format: cell-based, bovine; conditions: cultured endothelial cells
Method: Cultured BAEC were grown in 6-well plates until confluence was reached. Cells were washed and incubated in 1 mL of DMEM containing labeled peptides (10^−6 M) for 1, 2, 4 or 6 hours at 37° C., washed three times with cold PBS containing 0.1 M glycine (pH 4) to remove non-specific surface staining.
After complete media removal, cells were trypsinized, centrifuged and proteins were extracted by adding 150 μL of SDS-based or Triton X-100 lysis buffer. Membranes were removed by centrifugation, and internalized peptides were quantified by using a fluorescence plate reader (Perseptive Biosystems).
Cells incubated with peptides for 5 minutes and washed as described were used as basal surface staining. Linearity of both fluorophores used was determined by performing a concentration-fluorescence curve using lysis solution. Experiments with each fluorophore were performed individually to prevent cross-interference.

[7] = system: experimental autoimmune encephalitis; conditions: experimental model of autoimmune encephalitis; cited from earlier work
[8] = system: traumatic brain injury; assay: Traumatic brain injury, controlled cortical impact model; format: in vivo, rat; conditions: rats
Excerpt: Sprague Dawley rats (10 week old) are anesthetized using 1-2% isoflurane and fixed in a stereotactic frame. The skull is surgically exposed and a craniectomy 2.5 mm in radius is made centered on coordinates −0.2 mm anterior and +0.2 mm lateral to midlineat the fronto-parietal cortex. A controlled cortical impactor (Pittsburgh Precision Instruments, Inc., Pittsburgh, Pa.) is used to deliver an impact using a velocity of 6.0 m/s and depth of 1.0 mm below the dura mater and duration of impact of 150 ms. The impactor is angled to impact the skull perpendicular to the brain at the point of impact. Animals are maintained at normal body temperature throughout the procedure. Following the impact, the incision is sutured and the animals are allowed to recover.
Neurological deficits are scored using the system of Clark assessed 24 and 48 hours post injury. See, Clark W et al., Citicoline treatment for experimental intracerebral hemorrhage in mice. Stroke; a journal of cerebral circulation. 1998; 29(10):2136-40. PubMed PMID: 9756595.
At 48 hours post TBI, rats are sacrificed and the brains sectioned and tissue processed for immunohistochemistry. […] See, Glushakov et al., Prostaglandin F2alpha FP receptor antagonist improves outcomes after experimental traumatic brain injury, Journal of neuroinflammation. 2013; 10(1):132. doi: 10.1186/1742-2094-10-132. PubMed PMID:24172576.

[9] = BAEC, peptide 10^−5 M, VEGF 10^−9 M 30 min

For “Endo5 (RRPPR) with cargo DGIWKASFTTFTVTKYWFYR, caveolin-1 amino acids 82-101, fused to its C-terminus (RRPPRDGIWKASFTTFTVTKYWFYR; listed as Homo sapiens) [Endo5-Cav]”, the “eNOS inhibition (VEGF-induced NO release), in words” value ([1]; BAEC, 10^−5 M, 4 hours pretreatment) was “complete eNOS inhibition”, the “inhibition of VEGF-induced NO release after pretreatment with AP” value ([1]; BAEC, Endo5-Cav 10^−5 M 6 h, AP 5×10^−5 M pretreatment) was 30% and the “inhibition of VEGF-induced NO release after pretreatment with Endo5” value ([1]; BAEC, Endo5-Cav 10^−5 M 6 h, Endo5 5×10^−5 M pretreatment) was 13%. The “fate of the inhibition of VEGF-induced NO release after pretreatment with either AP or Endo5” value ([1]; BAEC, construct 10^−5 M 6 h, AP or Endo5 5×10^−5 M) was “partially prevented”, the “effect on VEGF-induced NO release (in words)” value [1, 9] was “completely impaired; also recorded: near-maximum effect; also recorded: completely blocked” and the “inhibition of VEGF-induced NO release” value [1, 9] was 91%. The “effect on basal (unstimulated) NO release” value ([1]; BAEC, 10^−5 M) was “no significant effect”, the “rate of uptake relative to AP-Cav” value ([1]; inferred from 2 h Endo5-Cav vs 6 h AP-Cav pretreatment, 10^−5 M) was “approximately three times” and the “inhibition of mustard oil-induced vascular leakage” value [2] was 58%.

With “Endo5-CavAB: 19-mer: Endo5 fused to Cav AB domain (amino acids 82-95 of human caveolin-1); second generation cavtratin (RRPPRDGIWKASFTTFTVT; listed as Homo sapiens)” the “inhibition of VEGF-induced NO release” value ([1]; BAEC, peptide 2×10^−6 M) was 49%, the “effect on VEGF-induced NO release (in words)” value [1, 9] was “completely blocked” and the “histopathologic score of the colon” value [3] was “improve the histopathologic sore”. The “weight loss at 9 days” value [3] was “reduce the weight loss” and the “symptoms of MS (motor function, gait)” value [4] was “improves the symptoms of MS”.

For “RQIKIWFQNRRMKWKK (listed as Rattus norvegicus) [AP, 16-mer Antennapedia cell-permeable peptide, reference compound]”, the “intracellular staining after pulse” value [5] was “diffuse punctate cytoplasmic staining”, the “intracellular staining after chase” value [5] was “more concentrated rather than diffuse pattern” and the “effect on VEGF-induced NO release (in words)” value [1, 9] was “no significant effect”. For the same substance, the “effect on basal (unstimulated) NO release” value ([1]; BAEC, 10^−5 M) was “no significant effect”.

In the case of “RRPPR [Endo5, five-amino acid cell-permeable transport peptide]”, the “intracellular staining after pulse” value [5] was “diffuse punctate cytoplasmic staining”, the “intracellular staining after chase” value [5] was “more concentrated rather than diffuse pattern” and the “effect on VEGF-induced NO release (in words)” value [1, 9] was “no significant effect”. For the same substance, the “effect on basal (unstimulated) NO release” value ([1]; BAEC, 10^−5 M) was “no significant effect” and the “rate of uptake / internalization relative to AP” value [6] was “three times greater”.

In the case of “cavtratin: caveolin mimetic, a fusion peptide of a cell penetrating peptide to the caveolin scaffolding domain; first generation (RQIKIWFQNRRMKWKKDGIWKASFTTFTVTKYWFYR)”, the “blood brain barrier disruption” value [7] is given as “inhibited”, the “clinical score / functional deficits” value [7] is given as “improve; also recorded: ameliorates” and the edema [7] is given as “block”. The “inflammatory cell (CD45+) invasion into the brain parenchyma” value [7] was “block; also recorded: inhibited”, the “histopathologic score of the colon” value [3] was “improve the histopathologic sore” and the “weight loss at 9 days” value [3] was “reduce the weight loss”. The “neurological deficits (Clark score)” value ([8]; 2.5 mg/kg i.p. immediately after TBI and at 24 hours, scored 24 and 48 hours post injury) was “reduces the observed neurological deficits” and the “GFAP expression in the lesion penumbra” value ([8]; 2.5 mg/kg i.p., 48 hours post TBI) was “reduces GFAP expression”.
